# From patent US7427598B2, “Post-natal administration of activity-dependent neurotrophic factor-derived polypeptides for enhancing learning and memory” (The United States of Americas as represented by the …, priority 2001, dated 2008)
# Square brackets hold non-standard residues; d marks the D form. Ends that are not written are not given here.
# Legend:
# C57-B16J mice = assay: Morris water maze in male offspring after prenatal treatment of pregnant mice; type: in vivo, mouse; details: vs vehicle; for Latency to find the hidden platform, prenatal oral single peptide 40 μg: gavage on pregnancy day 8, 40 μg
# Protocol: C57-B16J female mice (Jackson Labs) were kept under a 12 h light, 12 h dark regimen with food and water available at all times. The mice received humane animal care in compliance with the “Guideline for Care and Use of Experimental Animals.” Six week old females (21-24 grams) were mated with C57-B16J males for 4 h. The presence of a vaginal plug was considered day 0 pregnancy.
# Animals were injected intraperitoneally on pregnancy day 8, or treated on pregnancy day 8 after 1 hour fast with gavage dose of ADNF polypeptides. NAP was diluted in 50 μl DMSO and diluted in filtered Dulbecco 's phosphate buffered saline (DPBS). SAL was dissolved and diluted in filtered DPBS. Control animals were treated with a vehicle (i.e., DPBS). All treatments were coded.
# Delivery occurred on day 20, weaning on day 20 of life. Male offspring were eartagged with all identifying markers of coded treatments removed.
# Only male mice were used for the water maze trials. Testing of mice began at 35-50 days, typically on day 38, twice daily (two trials) for 7 days.
# Morris water maze test used is adapted from “repeated acquisition of a spatial navigation task in mice: Effects of spacing of trials and of unilateral middle cerebral artery occlusion” Klapdor & Van der Staay, Physiology & Behav. 63(5):903-909 (1998). A trial consists of attempting to find the hidden platform from 4 set points. Specifically, testing of mice began in the mornings, typically between 9 and 9:30. Consistent timing is important to any behavioral study. Testing of mice was performed in a random order to prevent chronological bias by the researcher. Maze was set up the day before, to allow water time to adjust to room temperature. 100-150 ml of non-toxic white tempura is added and mixed. […]
# On days 2-7, mice are only given 15 seconds on the platform before the initial trial. […] The daily average escape latency is calculated and plotted along the 7 day period for test administration. […]
# [1] = Biodistribution and intactness of [3H]-NAP following intranasal administration
# Protocol: (§1) The specific activity was 50 Ci/mmol. The purity and identity of NAP was ascertained using high performance liquid chromatography (HPLC) Zorbax SB-C18 (250×4.6 mm) 5 μm, and elution with a 5-25% methanol gradient in 0.1% trifluoroacetic acid over 20 minutes and detection by UV at 220 nm and [^3H] detector β-Ram. Two and half microliter of a solution containing 1 mCi/ml were applied to each nostril of a (200-300 g) male Wistar rat. At designated time points, rats were sacrificed and tissues solubilized (100 mg in one ml Luma Solve, Lumac by., Landgraaf, Netherlands, Netherlands) at 55° C. for 12 hours. Radioactivity was determined following the addition of Optiflour (10 ml/100 mg, Packard, Groningen, Netherlands) in a beta scintillation counter.
# (§2) For determination of intact NAP in the brain, cortical tissue was homogenized with phosphate buffered saline (PBS) at 4° C. (100 mg/1 ml) and the homogenate was submitted to a 10,000 g centrifugation (10 min.) at 4° C. The resulting supernatant was frozen at −80° C. and further subjected to HPLC (RP-18, Merck, 250×4 mm; 5 μm), employing a linear gradient established between 35% acetonitrile and 75% acetonitrile in water containing 0.1% trifluoroacetic acid (Gozes et al., Proc. Nati. Acad. Sci. U.S.A. 96:4143-4148 (1999)).
# neuroblastoma cell = details: buthionine sulfoximine induced; cited from earlier work
# [2] = rat
# Protocol: as §1, §2
# [3] = Preliminary toxicology studies
# [4] = rat, in vivo, inhaled or intranasal
# AF64A-treated rats [5] = assay: Water maze (two daily tests, hidden platform) in AF64A cholinotoxicity rats, intranasal peptide; type: in vivo, rat; details: 1 μg peptide intranasal daily, vs AF64A-vehicle
# Protocol: Rats were subjected to two daily tests in a water maze, including a hidden platform (Morris, R., J. Neurosci. Methods 11:47-60 (1984); Gordon et al., Neurosci. Lett. 199:1-4 (1995); Gozes et al., J Neurobiol. 33:329-342. (1997a)). Every day for the first test, both the platform and the animal were situated in a new location with regards to the pool (with the pool being immobile).
# The experiment was performed as follows: the animal was positioned on the platform for 0.5 min., then placed in the water. The time required to reach the platform (indicative of learning and intact reference memory) was measured (first test). […] The time required to reach the platform in the second trial was recorded, indicative of short-term (working) memory. […]
# After a week of peptide treatment, the animals were subjected to two daily tests in the water maze (as above). […] To avoid bias related to changes in motor activity in the various treatment groups, a probe trial test that assessed spatial memory was also utilized as follows. After four days of training and testing, the platform was removed and on day 5 the animals were subjected to swimming in the pool (120 sec) without the platform; in these experiments, the time spent in the quadrant of the pool where the platform used to be was recorded. […]
# AF64A-treated rats [6] = assay: Probe trial (platform removed, time in platform quadrant) in rats; type: in vivo, rat; details: AF64A-treated rats given peptide intranasally vs AF64A-vehicle, 120 sec swim, p<0.001
# Excerpt: After a week of peptide treatment, the animals were subjected to two daily tests in the water maze (as above). During the test-period, animals were also given an intranasal administration of peptide or vehicle (carrier) an hour before the daily tests. To avoid bias related to changes in motor activity in the various treatment groups, a probe trial test that assessed spatial memory was also utilized as follows. After four days of training and testing, the platform was removed and on day 5 the animals were subjected to swimming in the pool (120 sec) without the platform; in these experiments, the time spent in the quadrant of the pool where the platform used to be was recorded. Measurements were performed using the HVS video tracking system (HVS Image Ltd. Hampton, UK).
# [7] = storage at temperatures <4° C.; cited from earlier work
# [8] = tested on: apolipoprotein E-deficient mice; details: injection to newborn mice, short-term memory in three-week-old pups; cited from earlier work
molecule,measurement,setting,value
"D-NAP: NAP (NAPVSIPQ) made of D-amino acids, for oral administration","Latency to find the hidden platform, prenatal oral single peptide 40 μg",C57-B16J mice,trend of faster latencies
"NAP, propyl 3-3,4-[^3H] [[^3H]-NAP]",Time of highest total radioactivity in the brain (cortex),[1]; following intranasal administration,60 min
same,Radioactivity found (calculated as NAP per g tissue),"[1]; intranasal 22.75 pmole per rat, compared with 91 fmoles/g assumed for homogeneous distribution",45 fmoles/g tissue
same,Organ distribution of total radioactivity,"[1]; intranasal [3H]-NAP, thirty minutes after administration",highest levels in the intestine
"D-SAL: SAL (SALLRSIPA) made of D-amino acids, for oral administration ([dS][dA][dL][dL][dR][dS][dI][dP][dA])","Latency to find the hidden platform, prenatal oral single peptide 40 μg",C57-B16J mice,trend of faster latencies
same,"Latency to find the hidden platform, prenatal oral double dose 80 μg","C57-B16J mice; gavage on pregnancy day 8, 80 μg",perform similarly to the control animals
"CCCCS(=N)(=O)CCC(N)C(=O)O (stereo not drawn) [buthionine sulfoximine, Buthionine sulfoximine]",Decrease in neuroblastoma cell viability,neuroblastoma cell,70-90%
"CC[C@H](C)[C@H](NC(=O)[C@H](CO)NC(=O)[C@@H](NC(=O)[C@@H]1CCCN1C(=O)[C@H](C)NC(=O)[C@@H](N)CC(N)=O)C(C)C)C(=O)N1CCC[C@H]1C(=O)N[C@@H](CCC(N)=O)C(=O)O [NAP, Asn-Ala-Pro-Val-Ser-Ile-Pro-Gln]",In vivo metabolism by HPLC analysis,[2],metabolized in vivo to multiple fragments
same,"Fraction of material intact in the brain, 30 min",[2]; in vivo,at least 12%
same,"Total material eluted from the HPLC column, cortex, 30 min",[2]; in vivo,807.8 fmole/g tissue
same,"Total material eluted from the HPLC column, cortex, 60 min",[2]; in vivo,1198.9 fmoles/g tissue
same,Toxic effects,[3],no toxic effects
same,half-life,[4],~15 min
SALLRSIPA [ADNF-9],"Latency to reach the hidden platform, first daily test (reference memory)",AF64A-treated rats [5]; NAP difference on fourth day of testing (p<0.041),apparent insignificant improvement
same,"Latency to reach the hidden platform, second daily test (short-term memory)",AF64A-treated rats [5]; p<0.001,significant improvements and reduced latencies
same,"Time spent in the quadrant of the pool where the platform was previously positioned (probe trial, day 5)",AF64A-treated rats [6],significantly increased
same,Biological activity of PBS solutions upon storage,[7],lost biological activity
same,Amelioration/prevention of memory deficits in apolipoprotein E-deficient mice,[8],less effective than NAP
